Reference: paper PMC9837035 (Nature Communications, 2023)
Values joined by “and” are separate entries in the source; they are usually repeats but may differ in a detail not shown here. Identical values can stand only once. Like-named read-outs stand apart in the source and are kept apart here.

Assays:
PRMT7 = PRMT7 (Homo sapiens, UniProt Q9NVM4); test: Radioisotope-based methyltransferase assay (selectivity)
EZH1 [1] = molecular target: T1, EZH1 (Homo sapiens, UniProt Q92800); test: biochemical
T1 sequence (Q92800 whole entry): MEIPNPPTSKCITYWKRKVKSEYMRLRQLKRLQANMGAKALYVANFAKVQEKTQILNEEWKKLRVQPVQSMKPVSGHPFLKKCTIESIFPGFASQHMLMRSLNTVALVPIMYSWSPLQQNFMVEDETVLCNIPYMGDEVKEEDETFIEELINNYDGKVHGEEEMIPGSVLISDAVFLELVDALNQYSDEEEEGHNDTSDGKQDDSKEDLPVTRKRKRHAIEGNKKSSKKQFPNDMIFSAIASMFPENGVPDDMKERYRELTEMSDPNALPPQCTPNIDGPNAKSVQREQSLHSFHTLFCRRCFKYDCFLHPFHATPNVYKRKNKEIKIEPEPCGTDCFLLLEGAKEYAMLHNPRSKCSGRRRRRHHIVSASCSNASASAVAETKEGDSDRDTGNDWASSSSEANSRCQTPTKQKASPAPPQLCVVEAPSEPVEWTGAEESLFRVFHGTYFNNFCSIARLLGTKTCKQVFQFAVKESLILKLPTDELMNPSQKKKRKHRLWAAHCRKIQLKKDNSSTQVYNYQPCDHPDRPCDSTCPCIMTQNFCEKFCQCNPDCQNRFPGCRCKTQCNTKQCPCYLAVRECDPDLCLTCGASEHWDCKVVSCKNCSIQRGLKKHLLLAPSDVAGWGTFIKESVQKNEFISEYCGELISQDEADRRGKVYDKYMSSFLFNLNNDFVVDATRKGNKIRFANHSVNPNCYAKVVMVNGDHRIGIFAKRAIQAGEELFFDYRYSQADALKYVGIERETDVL
T1 sequence (O75530 whole entry partner): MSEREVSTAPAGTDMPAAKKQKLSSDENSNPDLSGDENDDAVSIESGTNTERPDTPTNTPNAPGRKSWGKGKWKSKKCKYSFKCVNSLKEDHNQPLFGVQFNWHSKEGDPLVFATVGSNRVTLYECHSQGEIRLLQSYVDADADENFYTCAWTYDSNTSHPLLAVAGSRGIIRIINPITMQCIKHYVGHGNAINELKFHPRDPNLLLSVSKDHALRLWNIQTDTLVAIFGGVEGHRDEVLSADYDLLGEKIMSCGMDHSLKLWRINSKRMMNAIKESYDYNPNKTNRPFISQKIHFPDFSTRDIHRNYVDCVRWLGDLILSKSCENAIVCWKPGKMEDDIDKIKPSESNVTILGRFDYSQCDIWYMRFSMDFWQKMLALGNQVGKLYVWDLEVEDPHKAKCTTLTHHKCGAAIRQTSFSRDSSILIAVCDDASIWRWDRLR
T1 sequence (Q15022 whole entry partner): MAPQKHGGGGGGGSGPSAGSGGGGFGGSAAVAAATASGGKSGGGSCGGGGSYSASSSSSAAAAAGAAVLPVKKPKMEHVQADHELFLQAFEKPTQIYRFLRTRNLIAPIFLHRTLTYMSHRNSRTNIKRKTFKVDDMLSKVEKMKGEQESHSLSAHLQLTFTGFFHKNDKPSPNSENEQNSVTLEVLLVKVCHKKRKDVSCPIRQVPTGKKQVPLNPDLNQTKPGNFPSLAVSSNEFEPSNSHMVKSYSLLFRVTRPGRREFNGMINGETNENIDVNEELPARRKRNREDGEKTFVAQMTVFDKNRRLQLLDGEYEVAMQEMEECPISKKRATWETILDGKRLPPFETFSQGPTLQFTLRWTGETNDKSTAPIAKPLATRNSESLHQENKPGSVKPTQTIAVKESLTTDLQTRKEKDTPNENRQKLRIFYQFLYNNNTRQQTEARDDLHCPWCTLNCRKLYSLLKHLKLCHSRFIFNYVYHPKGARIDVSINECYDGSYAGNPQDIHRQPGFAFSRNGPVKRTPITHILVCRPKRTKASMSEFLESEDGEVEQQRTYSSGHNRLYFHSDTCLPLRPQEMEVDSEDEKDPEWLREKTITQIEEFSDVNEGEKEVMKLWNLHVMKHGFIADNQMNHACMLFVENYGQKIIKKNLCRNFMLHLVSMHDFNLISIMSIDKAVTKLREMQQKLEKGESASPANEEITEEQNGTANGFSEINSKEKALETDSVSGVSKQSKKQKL
T1 sequence (Q09028 whole entry partner): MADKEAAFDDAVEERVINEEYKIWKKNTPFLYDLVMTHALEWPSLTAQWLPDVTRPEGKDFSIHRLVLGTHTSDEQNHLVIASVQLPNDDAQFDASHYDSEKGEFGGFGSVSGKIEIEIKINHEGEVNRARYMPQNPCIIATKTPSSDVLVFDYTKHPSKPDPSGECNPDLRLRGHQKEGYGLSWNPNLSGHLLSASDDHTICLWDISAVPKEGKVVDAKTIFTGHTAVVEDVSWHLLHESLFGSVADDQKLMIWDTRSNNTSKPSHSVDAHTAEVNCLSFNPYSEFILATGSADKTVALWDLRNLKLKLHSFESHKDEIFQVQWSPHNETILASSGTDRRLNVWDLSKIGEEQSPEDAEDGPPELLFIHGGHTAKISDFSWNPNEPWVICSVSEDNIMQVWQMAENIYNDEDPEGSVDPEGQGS
T1 sequence (Q6ZN18 whole entry partner): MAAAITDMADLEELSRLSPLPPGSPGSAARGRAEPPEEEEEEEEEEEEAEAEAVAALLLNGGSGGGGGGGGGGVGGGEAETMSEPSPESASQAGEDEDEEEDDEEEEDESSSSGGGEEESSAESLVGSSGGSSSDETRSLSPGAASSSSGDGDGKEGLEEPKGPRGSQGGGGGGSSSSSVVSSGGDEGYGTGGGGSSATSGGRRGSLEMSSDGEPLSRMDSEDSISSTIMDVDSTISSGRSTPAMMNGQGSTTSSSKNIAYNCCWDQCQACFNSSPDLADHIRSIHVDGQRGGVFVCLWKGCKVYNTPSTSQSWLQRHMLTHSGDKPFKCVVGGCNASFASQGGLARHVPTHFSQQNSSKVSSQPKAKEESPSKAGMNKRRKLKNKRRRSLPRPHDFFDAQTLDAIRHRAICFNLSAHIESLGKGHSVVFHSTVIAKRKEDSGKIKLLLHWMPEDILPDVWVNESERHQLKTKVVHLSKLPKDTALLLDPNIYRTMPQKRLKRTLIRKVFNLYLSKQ

[2] = system: bone marrow cells of rats; test: In vivo micronucleus assay
Source text: A negative control group was established, where the animals received orally 5% methylcellulose solution. […] We counted erythrocytes, recorded the frequencies of polychromatic erythrocyte (PCE) cells in 500 erythrocytes and micronucleated polychromatic erythrocyte (MNPCE) cells in 4000 PCE cells, and calculated the average frequency and the standard deviations for each treatment groups.

EZH1 [3] = molecular target: T1, EZH1; test: Radioisotope-based methyltransferase assay (selectivity)
[4] = Cell viability assay (WST-8), HUDEP-2; type: cell-based, human; details: human, HUDEP-2 cells, control (0 μM) = 100
Procedure: (§1) A WST-8 (2-(2-methoxy-4-nitrophenyl)-3-(4-nitrophenyl)-5-(2,4-disulfophenyl)-2H-tetrazolium) assay using a Cell Counting Kit-8 (DOJINDO) was performed to measure cell viability using an EnSpire microplate reader (PerkinElmer).

HUDEP-2 cells = test: Cell viability assay (WST-8), HUDEP-2; type: cell-based, human; details: for cell viability in HUDEP-2 cells: control (0 μM) = 100
Procedure: as §1

NSD2 (E1099K) = NSD2 (E1099K) (Homo sapiens, UniProt O96028, E1099K); test: Radioisotope-based methyltransferase assay (selectivity)
PRMT8 = PRMT8 (Homo sapiens, UniProt Q9NR22); test: as above
Chain of PRMT8 (Q9NR22 whole entry): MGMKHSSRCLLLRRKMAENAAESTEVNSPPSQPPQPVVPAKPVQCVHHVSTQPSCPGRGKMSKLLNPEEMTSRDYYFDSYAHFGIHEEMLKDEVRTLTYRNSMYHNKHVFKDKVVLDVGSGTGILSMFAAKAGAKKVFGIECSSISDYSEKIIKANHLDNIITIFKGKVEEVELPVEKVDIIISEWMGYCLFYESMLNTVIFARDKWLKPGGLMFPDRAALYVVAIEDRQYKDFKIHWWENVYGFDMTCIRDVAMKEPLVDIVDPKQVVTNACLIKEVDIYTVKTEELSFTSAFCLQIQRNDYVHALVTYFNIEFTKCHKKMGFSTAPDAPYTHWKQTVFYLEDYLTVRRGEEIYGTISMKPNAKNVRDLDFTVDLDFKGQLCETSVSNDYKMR

PRMT1 = PRMT1 (Homo sapiens, UniProt Q99873)
Chain of PRMT1 (Q99873 whole entry): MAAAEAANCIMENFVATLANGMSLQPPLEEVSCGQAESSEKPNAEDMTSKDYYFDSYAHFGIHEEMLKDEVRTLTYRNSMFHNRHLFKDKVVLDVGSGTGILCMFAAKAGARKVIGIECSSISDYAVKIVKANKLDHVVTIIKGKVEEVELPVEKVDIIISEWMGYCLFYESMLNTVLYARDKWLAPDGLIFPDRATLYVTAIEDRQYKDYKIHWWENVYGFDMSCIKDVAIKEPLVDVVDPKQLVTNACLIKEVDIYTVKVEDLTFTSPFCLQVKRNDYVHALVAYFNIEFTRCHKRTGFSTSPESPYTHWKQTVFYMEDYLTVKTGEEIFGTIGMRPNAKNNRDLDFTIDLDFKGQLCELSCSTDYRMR

NSD3 = molecular target: T2, NSD3 (Homo sapiens, UniProt Q9BZ95); test: Radioisotope-based methyltransferase assay (selectivity); type: biochemical; details: read-out: IC50
T2 construct: purchased Reaction Biology
T2 sequence (Q9BZ95 1-1437): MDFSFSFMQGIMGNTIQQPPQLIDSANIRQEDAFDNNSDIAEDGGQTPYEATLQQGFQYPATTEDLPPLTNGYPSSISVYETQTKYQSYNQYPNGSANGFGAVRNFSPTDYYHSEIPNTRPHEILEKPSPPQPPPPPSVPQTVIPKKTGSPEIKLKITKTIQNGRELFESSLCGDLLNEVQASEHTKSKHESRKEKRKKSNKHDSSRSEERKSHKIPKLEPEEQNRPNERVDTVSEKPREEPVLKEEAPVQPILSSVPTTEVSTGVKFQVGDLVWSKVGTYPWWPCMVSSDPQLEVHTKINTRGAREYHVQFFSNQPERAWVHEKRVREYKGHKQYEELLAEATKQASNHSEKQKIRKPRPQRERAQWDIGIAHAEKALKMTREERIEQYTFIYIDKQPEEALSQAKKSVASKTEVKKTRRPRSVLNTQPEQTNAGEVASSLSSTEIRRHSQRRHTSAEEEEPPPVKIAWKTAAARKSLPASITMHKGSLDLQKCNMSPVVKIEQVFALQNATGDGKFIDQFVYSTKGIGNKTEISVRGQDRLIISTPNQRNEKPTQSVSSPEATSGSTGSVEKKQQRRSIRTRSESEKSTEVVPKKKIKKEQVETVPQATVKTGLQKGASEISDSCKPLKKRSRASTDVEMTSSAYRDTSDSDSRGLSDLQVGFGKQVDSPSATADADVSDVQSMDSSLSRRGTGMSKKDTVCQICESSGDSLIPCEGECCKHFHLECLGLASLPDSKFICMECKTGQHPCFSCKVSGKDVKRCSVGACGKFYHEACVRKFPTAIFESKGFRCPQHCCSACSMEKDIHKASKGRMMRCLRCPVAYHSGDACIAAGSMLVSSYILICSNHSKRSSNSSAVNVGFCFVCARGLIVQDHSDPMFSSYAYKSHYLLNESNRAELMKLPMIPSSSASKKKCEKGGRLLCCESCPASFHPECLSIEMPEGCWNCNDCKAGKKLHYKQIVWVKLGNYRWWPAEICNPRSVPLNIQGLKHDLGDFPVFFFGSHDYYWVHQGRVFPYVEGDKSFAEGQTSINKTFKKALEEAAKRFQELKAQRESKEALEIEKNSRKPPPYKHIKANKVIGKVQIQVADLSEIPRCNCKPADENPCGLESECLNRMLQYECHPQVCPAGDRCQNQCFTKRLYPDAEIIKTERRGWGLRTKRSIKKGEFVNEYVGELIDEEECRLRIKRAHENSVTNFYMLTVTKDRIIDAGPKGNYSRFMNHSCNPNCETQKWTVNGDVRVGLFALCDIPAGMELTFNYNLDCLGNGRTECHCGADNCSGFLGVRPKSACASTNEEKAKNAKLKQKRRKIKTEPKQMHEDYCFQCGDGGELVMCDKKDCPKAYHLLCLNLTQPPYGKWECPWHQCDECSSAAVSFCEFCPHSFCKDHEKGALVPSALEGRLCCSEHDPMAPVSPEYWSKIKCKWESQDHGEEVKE

[5] = Dose 10 mg/kg, individual animals
[6] = Dose 30 mg/kg, individual animals
[7] = Dose 100 mg/kg, individual animals
[8] = male rats, oral 2 weeks, 10 mg/kg, Mean ± S.D.
[9] = male rats, oral 2 weeks, 30 mg/kg, Mean ± S.D.
[10] = male rats, oral 2 weeks, 100 mg/kg, Mean ± S.D.

Chain of PRMT7 (Q9NVM4 whole entry): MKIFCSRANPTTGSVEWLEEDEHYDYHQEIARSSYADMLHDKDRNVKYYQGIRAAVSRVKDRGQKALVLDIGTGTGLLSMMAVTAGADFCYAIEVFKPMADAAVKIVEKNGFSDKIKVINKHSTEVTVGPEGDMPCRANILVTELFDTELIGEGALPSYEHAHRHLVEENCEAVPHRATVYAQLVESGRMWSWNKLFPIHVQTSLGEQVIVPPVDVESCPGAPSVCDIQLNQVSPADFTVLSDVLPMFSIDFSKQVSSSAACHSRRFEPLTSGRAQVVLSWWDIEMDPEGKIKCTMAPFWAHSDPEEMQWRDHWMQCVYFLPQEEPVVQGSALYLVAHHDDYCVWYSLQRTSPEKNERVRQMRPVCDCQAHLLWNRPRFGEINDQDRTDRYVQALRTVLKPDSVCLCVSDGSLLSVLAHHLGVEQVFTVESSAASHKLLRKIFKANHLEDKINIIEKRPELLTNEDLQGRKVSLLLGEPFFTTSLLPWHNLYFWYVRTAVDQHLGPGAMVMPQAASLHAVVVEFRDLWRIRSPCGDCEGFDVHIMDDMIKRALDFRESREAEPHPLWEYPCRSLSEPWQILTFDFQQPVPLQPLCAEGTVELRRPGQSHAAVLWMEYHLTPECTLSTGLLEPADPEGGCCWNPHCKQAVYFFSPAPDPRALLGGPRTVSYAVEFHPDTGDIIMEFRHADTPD

**Q.** With Cc1c(C(=O)NC(CCC2CC2)C(=O)Nc2ccc(C#N)cc2)[nH]c2c1C(=O)CC(C)(C)C2 (stereo not drawn) [RK-701] as the compound, how does the IC50 (PRMT7) read?
**A.** > 100 µM

**Q.** What about the IC50 (EZH1 [1]) of the same compound?
**A.** > 100 µM

**Q.** And the “MNPCE (%)” value [2, 5]?
**A.** 0.15% and 0.18% and 0.13% and 0.23%

**Q.** What about the “No. of PCE in 500 erythrocytes” value [2, 5] of the same compound?
**A.** 331 and 285 and 278 and 305 and 288

**Q.** And the “Number of MNPCE in 4000 PCE” value [2, 5]?
**A.** 6 and 7 and 5 and 9

**Q.** And the “PCE (%)” value [2, 5]?
**A.** 66.2% and 57% and 55.6% and 61% and 57.6%

**Q.** What about the “MNPCE (%)” value [2, 6] of the same compound?
**A.** 0.08% and 0.1%

**Q.** What about the “No. of PCE in 500 erythrocytes” value [2, 6] of the same compound?
**A.** 299 and 308 and 294 and 330 and 306

**Q.** What about the “Number of MNPCE in 4000 PCE” value [2, 6] of the same compound?
**A.** 3 and 4

**Q.** And the “PCE (%)” value [2, 6]?
**A.** 59.8% and 61.6% and 58.8% and 66% and 61.2%

**Q.** What about the “MNPCE (%)” value [2, 7] of the same compound?
**A.** 0.13% and 0.1% and 0.18% and 0.15%

**Q.** And the “No. of PCE in 500 erythrocytes” value [2, 7]?
**A.** 258 and 313 and 314 and 323 and 328

**Q.** What about the “Number of MNPCE in 4000 PCE” value [2, 7] of the same compound?
**A.** 5 and 4 and 7 and 6

**Q.** And the “PCE (%)” value [2, 7]?
**A.** 51.6% and 62.6% and 62.8% and 64.6% and 65.6%

**Q.** And the “MNPCE (%)” value [2, 8]?
**A.** 0.17 ± 0.04%

**Q.** What about the “No. of PCE in 500 erythrocytes” value [2, 8] of the same compound?
**A.** 297 ± 21

**Q.** And the “PCE (%)” value [2, 8]?
**A.** 59.5 ± 4.2%

**Q.** What about the “MNPCE (%)” value [2, 9] of the same compound?
**A.** 0.09 ± 0.01%

**Q.** What about the “No. of PCE in 500 erythrocytes” value [2, 9] of the same compound?
**A.** 307 ± 14

**Q.** What about the “Number of MNPCE in 4000 PCE” value [2, 9] of the same compound?
**A.** 4 ± 1

**Q.** And the “PCE (%)” value [2, 9]?
**A.** 61.5 ± 2.8%

**Q.** What about the “MNPCE (%)” value [2, 10] of the same compound?
**A.** 0.13 ± 0.03%

**Q.** And the “No. of PCE in 500 erythrocytes” value [2, 10]?
**A.** 307 ± 28

**Q.** What about the “Number of MNPCE in 4000 PCE” value [2, 10] of the same compound?
**A.** 5 ± 1

**Q.** And the “PCE (%)” value [2, 10]?
**A.** 61.4 ± 5.6%

**Q.** What about the “Number of MNPCE in 4000 PCE” value ([2]; male rats, oral once a day 2 weeks, 10 mg/kg, Mean ± S.D.) of the same compound?
**A.** 7 ± 1

**Q.** And the “formation of micronuclei in bone marrow cells” value ([2]; rats, oral, up to 100 mg/kg, two weeks)?
**A.** did not cause the formation of micronuclei

**Q.** What about the IC50 (EZH1 [3]) of the same compound?
**A.** > 100 µM

**Q.** What about the viability at 0.0137174 μM ([4]; 0.0137174 μM) of the same compound?
**A.** 99.9%

**Q.** And the viability at 0.123457 μM ([4]; 0.123457 μM)?
**A.** 97.4%

**Q.** And the viability at 0.37037 μM ([4]; 0.37037 μM)?
**A.** 99.9%

**Q.** And the viability at 1.11111 μM ([4]; 1.11111 μM)?
**A.** 105%

**Q.** What about the viability at 3.33333 μM ([4]; 3.33333 μM) of the same compound?
**A.** 94.3%

**Q.** What about the viability at 10 μM ([4]; 10 μM) of the same compound?
**A.** 77.4%

**Q.** What about the “cell viability in HUDEP-2 cells” value (HUDEP-2 cells; 0.00457247 μM) of the same compound?
**A.** 120.908 and 97.8824 and 118.228

**Q.** And the “cell viability in HUDEP-2 cells” value (HUDEP-2 cells; 0.0137174 μM)?
**A.** 97.2549 and 110.051

**Q.** What about the “cell viability in HUDEP-2 cells” value (HUDEP-2 cells; 0.0411523 μM) of the same compound?
**A.** 112.451 and 91.2941 and 106.985

**Q.** And the “cell viability in HUDEP-2 cells” value (HUDEP-2 cells; 0.123457 μM)?
**A.** 96.9412 and 105.622

**Q.** And the “cell viability in HUDEP-2 cells” value (HUDEP-2 cells; 0.37037 μM)?
**A.** 97.8824 and 103.918

**Q.** What about the “cell viability in HUDEP-2 cells” value (HUDEP-2 cells; 1.11111 μM) of the same compound?
**A.** 96.3137 and 96.4225

**Q.** What about the “cell viability in HUDEP-2 cells” value (HUDEP-2 cells; 3.33333 μM) of the same compound?
**A.** 88.1569 and 84.8382

**Q.** What about the “cell viability in HUDEP-2 cells” value (HUDEP-2 cells; 10 μM) of the same compound?
**A.** 78.4314 and 79.046

**Q.** What about the “cytotoxic effect on viability” value (HUDEP-2 cells; HUDEP-2, 3 days) of the same compound?
**A.** essentially no cytotoxic effect

**Q.** What about the IC50 (NSD2 (E1099K)) of the same compound?
**A.** > 100 µM

**Q.** What about the IC50 (PRMT8) of the same compound?
**A.** > 100 µM

**Q.** What about the IC50 (PRMT1) of the same compound?
**A.** > 100 µM

**Q.** What about the IC50 (NSD3; NSD3, 1 μM SAM) of the same compound?
**A.** > 100 µM

**Q.** What about the IC50 (NSD3; NSD3, RK-701 in duplicate) of the same compound?
**A.** > 100 µM
